Literature values in patent US20200101067A1 (IRR, Inc., priority 2013, published 2020).
Read-outs that look alike come from different tables or passages of the source.

How the values were obtained:
[1] = not given; remark: listed apart in the source
H1 receptor = H1 receptor (Homo sapiens, UniProt P35367); conditions: acidic pH, inflamed tissue
H1 receptor, sequence (P35367 whole entry): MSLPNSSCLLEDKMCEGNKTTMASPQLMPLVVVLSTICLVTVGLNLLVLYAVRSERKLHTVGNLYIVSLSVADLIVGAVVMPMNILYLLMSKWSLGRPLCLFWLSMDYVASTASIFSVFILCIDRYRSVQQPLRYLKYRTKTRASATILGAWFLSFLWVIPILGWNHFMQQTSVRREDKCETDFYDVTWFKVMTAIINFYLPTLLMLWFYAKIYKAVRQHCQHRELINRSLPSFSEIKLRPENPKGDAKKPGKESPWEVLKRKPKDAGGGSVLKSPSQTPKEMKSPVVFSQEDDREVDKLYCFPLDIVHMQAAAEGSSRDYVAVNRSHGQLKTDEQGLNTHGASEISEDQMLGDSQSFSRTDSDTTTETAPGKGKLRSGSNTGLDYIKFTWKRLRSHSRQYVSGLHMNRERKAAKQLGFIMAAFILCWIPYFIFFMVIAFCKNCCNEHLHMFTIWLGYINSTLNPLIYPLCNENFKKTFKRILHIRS

Dose that can be safely administered (studies in humans) | Time to steady state level ([1]; in vivo) [h] | Enhanced receptor affinity over first generation mepyramine / first generation molecules (H1 receptor) [×] | Enhanced receptor affinity over first generation mepyramine / first generation molecules (H1 receptor; listed as levocetirizine) | SMILES | Rhinovirus-induced ICAM-1 and cytokine expression and viral replication (human rhinovirus; airway epithelial cells) | ICAM-1, IL-6, IL-8, TLR3 expression and NF-kappa B activation (human rhinovirus; stated as in vivo) | Principal side effect at higher doses (higher doses, up to 30 mg/day) | Eosinophil migration (IL-4, IL-6, and IL-8) | Inflammatory mediators IL-4, IL-6, and IL-8 (IL-4, IL-6, and IL-8) | Dose without clinically important adverse experiences (adult patients, 22 weeks) | Dose without clinically important adverse experiences (short-term studies, approximately one week) | Plasma concentration area under the curve profile, IV 7 mg vs approved 10 mg oral tablet ([1]; IV 7 mg) | Linear pharmacokinetics to dose ([1]; in vivo) [mg] | Steady-state level reached ([1]; in vivo) | Time to peak plasma level ([1]; in vivo) [h] | Steady-state level reached ([1]; in vivo, listed as montelukast) | Effect of a standard meal on oral bioavailability and Cmax ([1]; oral)
up to 30 mg/day | 40 | 5 | up to 5 × | O=C(O)COCCN1CCN([C@H](c2ccccc2)c2ccc(Cl)cc2)CC1 [Levocetirizine, levocetirizine] | inhibits | decrease | Sedation | decrease | decrease | – | – | – | – | – | – | – | –
– | – | – | – | CC(C)(O)c1ccccc1CC[C@@H](SCC1(CC(=O)O)CC1)c1cccc(/C=C/c2ccc3ccc(Cl)cc3n2)c1 [Montelukast, montelukast] | – | – | – | – | – | up to 200 mg/day | up to 900 mg/day | comparable | ≤ 50 | less than two | 3 to 4 | two | not affected
